# Results taken from patent US9458135B2, “Dihydroquinoline-2-one derivatives” (Hoffmann-La Roche Inc., priority 2014, dated 2016).
# What was measured:
# human CYP11B2 = human CYP11B2 (Homo sapiens (Human), UniProt P19099); test: G-402 cellular enzyme assay, human CYP11B2 (aldosterone release, HTRF); format: cell-based; details: G-402 cells expressing human CYP11B2; 1 μM Deoxycorticosterone
# Description: (§1) Herein we identified the use of the G-402 cell line as a host cell to ectopically express (transiently or stably) enzymes of the CYP11 family. Specifically we developed stable G-402 cells expressing ectopically human CYP11B1, human CYP11B2, human CYP11A1, cynmolgus CYP11B1 or cynomolgus CYP11B2 enzyme activity. Importantly the identified cell line G-402 expresses co-factors (adrenodoxin and adrenodoxin reductase) important for the activity of the CYP11 family and no relevant enzyme activity of the CYP11 family (in comparison to H295R cells) was detected in these cells. Therefore the G-402 cell line is uniquely suited as a host cell for the ectopic expression of enzymes from the CYP11 family.
# (§2) The expression plasmids contains the ORF for either huma/cyno CYP11B1 or CYP11B2 under the control of a suitable promoter (CMV-promoter) and a suitable resistance marker (neomycin). Using standard techniques the expression plasmid is transfected into G-402 cells and these cells are then selected for expressing the given resistance markers. Individual cell-clones are then selected and assessed for displaying the desired enzymatic activity using 11-Deoxycorticosterone (Cyp11B2) or 11-Deoxycortisol (Cyp11B1) as a substrate.
# (§3) G-402 cells expressing CYP11 constructs were established as described above and maintained in McCoy's 5a Medium Modified, ATCC Catalog No. 30-2007 containing 10% FCS and 400 μg/ml G418 (Geneticin) at 37° C. under an atmosphere of 5% CO2/95% air. Cellular enzyme assays were performed in DMEM/F12 medium containing 2.5% charcoal treated FCS and appropriate concentration of substrate (0.3-10 uM 11-Deoxycorticosterone, 11-Deoxycortisol or Corticosterone). For assaying enzymatic activity, cells were plated onto 96 well plates and incubated for 16 h. An aliquot of the supernatant is then transferred and analyzed for the concentration of the expected product (Aldosterone for CYP11B2; Cortisol for CYP11B1). The concentrations of these steroids can be determined using HTRF assays from CisBio analyzing either Aldosterone or Cortisol.
# (§4) Inhibition of the release of produced steroids can be used as a measure of the respective enzyme inhibition by test compounds added during the cellular enzyme assay. The dose dependent inhibition of enzymatic activity by a compound is calculated by means of plotting added inhibitor concentrations (x-axes) vs. measured steroid/product level (y-axes). The inhibition is then calculated by fitting the following 4-parameter sigmoidal function (Morgan-Mercer-Flodin (MMF) model) to the raw data points using the least squares method:
# (§5) [formula] wherein, A is the maximum y value, B is the EC50 factor determined using XLFit, C is the minimum y value and D is the slope value.
# (§6) EC50 values for compounds claimed herein were tested with the G402-based assay system described. Cyp11B2 enzyme activity was tested in presence of 1 μM Deoxycorticosterone and variable amounts of inhibitors; Cyp11B1 enzyme activity was tested in presence of 1 μM Deoxycortisol and variable amounts of inhibitors.
# human CYP11B1 = human CYP11B1 (Homo sapiens (Human), UniProt P15538); test: G-402 cellular enzyme assay, human CYP11B1 (cortisol release, HTRF); format: cell-based; details: G-402 cells expressing human CYP11B1; 1 μM Deoxycortisol
# Description: as §1, §2, §3, §4, §5, §6
# Sequence of human CYP11B2 (P19099 25-503): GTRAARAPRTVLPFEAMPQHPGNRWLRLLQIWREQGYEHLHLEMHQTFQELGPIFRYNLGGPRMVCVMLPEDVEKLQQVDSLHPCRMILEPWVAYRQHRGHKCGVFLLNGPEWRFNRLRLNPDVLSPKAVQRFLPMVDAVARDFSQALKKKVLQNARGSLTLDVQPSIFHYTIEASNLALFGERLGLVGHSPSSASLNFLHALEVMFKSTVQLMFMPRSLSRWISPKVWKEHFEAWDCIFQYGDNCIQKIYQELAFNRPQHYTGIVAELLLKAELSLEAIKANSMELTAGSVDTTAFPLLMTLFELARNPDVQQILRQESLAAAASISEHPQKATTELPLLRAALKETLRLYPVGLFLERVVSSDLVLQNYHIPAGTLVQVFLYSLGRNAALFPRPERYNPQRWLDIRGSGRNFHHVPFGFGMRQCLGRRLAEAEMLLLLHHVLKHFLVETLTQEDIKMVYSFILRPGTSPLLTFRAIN
# Sequence of human CYP11B1 (P15538 25-503): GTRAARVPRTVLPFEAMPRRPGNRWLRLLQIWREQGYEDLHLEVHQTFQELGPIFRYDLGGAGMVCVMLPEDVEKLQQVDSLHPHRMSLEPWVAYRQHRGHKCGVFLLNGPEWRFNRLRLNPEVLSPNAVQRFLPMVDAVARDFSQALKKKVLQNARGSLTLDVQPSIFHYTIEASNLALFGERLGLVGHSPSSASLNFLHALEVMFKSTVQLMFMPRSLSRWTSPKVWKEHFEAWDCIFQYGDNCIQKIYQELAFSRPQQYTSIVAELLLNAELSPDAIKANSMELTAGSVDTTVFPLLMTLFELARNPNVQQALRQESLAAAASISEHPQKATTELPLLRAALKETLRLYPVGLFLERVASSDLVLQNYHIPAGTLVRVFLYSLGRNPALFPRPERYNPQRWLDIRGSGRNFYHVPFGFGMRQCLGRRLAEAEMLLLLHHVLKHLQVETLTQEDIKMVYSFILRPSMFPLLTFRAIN
EC50 (human CYP11B2) [nM],EC50 (human CYP11B1) [nM],SMILES
3.6,101,"CN1C(=O)CCc2cc(-c3cncc(COc4ncccn4)c3)ccc21 [Example 12, 1-Methyl-6-[5-(pyrimidin-2-yloxymethyl)-pyridin-3-yl]-3,4-dihydro-1H-quinolin-2-one]"
5,866,"Cc1c(COc2ncccc2F)cncc1-c1cc2c(cc1F)N(C)C(=O)CC2 [Example 26, 7-Fluoro-6-[5-(3-fluoro-pyridin-2-yloxymethyl)-4-methyl-pyridin-3-yl]-1-methyl-3,4-dihydro-1H-quinolin-2-one]"
1.3,116,"Cc1c(COc2cccc(Cl)n2)cncc1-c1cc2c(cc1F)N(C)C(=O)CC2 [Example 25, 6-[5-(6-Chloro-pyridin-2-yloxymethyl)-4-methyl-pyridin-3-yl]-7-fluoro-1-methyl-3,4-dihydro-1H-quinolin-2-one]"
0.2,8.7,"CN1C(=O)CCc2cc(-c3cncc(COc4ccccn4)c3)ccc21 [Example 7, 1-Methyl-6-[5-(pyridin-2-yloxymethyl)-pyridin-3-yl]-3,4-dihydro-1H-quinolin-2-one]"
2,216,"Cc1cccc(OCc2cncc(-c3cc4c(cc3F)N(C)C(=O)CC4)c2)n1 [Example 22, 7-Fluoro-1-methyl-6-[5-(6-methyl-pyridin-2-yloxymethyl)-pyridin-3-yl]-3,4-dihydro-1H-quinolin-2-one]"
1.4,45.7,"CN1C(=O)CCc2cc(-c3cncc(CSc4ncccc4Cl)c3)ccc21 [Example 16, 6-[5-(3-Chloro-pyridin-2-ylsulfanylmethyl)-pyridin-3-yl]-1-methyl-3,4-dihydro-1H-quinolin-2-one]"
0.1,1.7,"Cc1ccnc(OCc2cncc(-c3ccc4c(c3)CCC(=O)N4C)c2)c1 [Example 5, 1-Methyl-6-[5-(4-methyl-pyridin-2-yloxymethyl)-pyridin-3-yl]-3,4-dihydro-1H-quinolin-2-one]"
0.1,1.6,"CN1C(=O)CCc2cc(-c3cncc(COc4ccc(Cl)cn4)c3)c(F)cc21 [Example 20, 6-[5-(5-Chloro-pyridin-2-yloxymethyl)-pyridin-3-yl]-7-fluoro-1-methyl-3,4-dihydro-1H-quinolin-2-one]"
0.3,12.3,"CN1C(=O)CCc2cc(-c3cncc(COc4ccnc(C(F)(F)F)n4)c3)ccc21 [Example 10, 1-Methyl-6-[5-(2-trifluoromethyl-pyrimidin-4-yloxymethyl)-pyridin-3-yl]-3,4-dihydro-1H-quinolin-2-one]"
0.4,3.6,"Cc1cc(OCc2cncc(-c3ccc4c(c3)CCC(=O)N4C)c2)nc(C(F)(F)F)c1 [Example 4, 1-Methyl-6-[5-(4-methyl-6-trifluoromethyl-pyridin-2-yloxymethyl)-pyridin-3-yl]-3,4-dihydro-1H-quinolin-2-one]"
0.5,14.3,"CN1C(=O)CCc2cc(-c3cncc(CSc4ncccc4C(F)(F)F)c3)ccc21 [Example 15, 1-Methyl-6-[5-(3-trifluoromethyl-pyridin-2-ylsulfanylmethyl)-pyridin-3-yl]-3,4-dihydro-1H-quinolin-2-one]"
0.1,0.8,"CN1C(=O)CCc2cc(-c3cncc(COc4cnc(Cl)nc4)c3)ccc21 [Example 11, 6-[5-(2-Chloro-pyrimidin-5-yloxymethyl)-pyridin-3-yl]-1-methyl-3,4-dihydro-1H-quinolin-2-one]"
0.1,4.1,"Cc1ccnc(OCc2cncc(-c3cc4c(cc3F)N(C)C(=O)CC4)c2)c1 [Example 23, 7-Fluoro-1-methyl-6-[5-(4-methyl-pyridin-2-yloxymethyl)-pyridin-3-yl]-3,4-dihydro-1H-quinolin-2-one]"
14.1,997,"CN1C(=O)CCc2cc(-c3cncc(COc4ncccc4F)c3)c(F)cc21 [Example 19, 7-Fluoro-6-[5-(3-fluoro-pyridin-2-yloxymethyl)-pyridin-3-yl]-1-methyl-3,4-dihydro-1H-quinolin-2-one]"
0.1,4.2,"Cc1nccc(OCc2cncc(-c3ccc4c(c3)CCC(=O)N4C)c2)n1 [Example 9, 1-Methyl-6-[5-(2-methyl-pyrimidin-4-yloxymethyl)-pyridin-3-yl]-3,4-dihydro-1H-quinolin-2-one]"
0.3,0.9,"CN1C(=O)CCc2cc(-c3cncc(CSc4nc5ccccc5o4)c3)ccc21 [Example 13, 6-[5-(Benzooxazol-2-ylsulfanylmethyl)-pyridin-3-yl]-1-methyl-3,4-dihydro-1H-quinolin-2-one]"
0.1,1.9,"CN1C(=O)CCc2cc(-c3cncc(COc4ccc(Cl)cn4)c3)ccc21 [Example 6, 6-[5-(5-Chloro-pyridin-2-yloxymethyl)-pyridin-3-yl]-1-methyl-3,4-dihydro-1H-quinolin-2-one]"
0.2,20.8,"Cc1c(COc2cccc(F)n2)cncc1-c1cc2c(cc1F)N(C)C(=O)CC2 [Example 27, 7-Fluoro-6-[5-(6-fluoro-pyridin-2-yloxymethyl)-4-methyl-pyridin-3-yl]-1-methyl-3,4-dihydro-1H-quinolin-2-one]"
0.2,6.3,"CN1C(=O)CCc2cc(-c3cncc(COc4ccc(F)cn4)c3)ccc21 [Example 2, 6-[5-(5-Fluoro-pyridin-2-yloxymethyl)-pyridin-3-yl]-1-methyl-3,4-dihydro-1H-quinolin-2-one]"
0.7,105,"Cc1cccc(OCc2cncc(-c3cc4c(cc3F)N(C)C(=O)CC4)c2C)n1 [Example 24, 7-Fluoro-1-methyl-6-[4-methyl-5-(6-methyl-pyridin-2-yloxymethyl)-pyridin-3-yl]-3,4-dihydro-1H-quinolin-2-one]"
2.2,14.5,"Cc1cccc(NC(=O)Cc2cncc(-c3ccc4c(c3)CCC(=O)N4C)c2)n1 [Example 28, 2-[5-(1-Methyl-2-oxo-1,2,3,4-tetrahydro-quinolin-6-yl)-pyridin-3-yl]-N-(6-methyl-pyridin-2-yl)-acetamide]"
0.3,7.5,"CN1C(=O)CCc2cc(-c3cncc(COc4cccc(F)n4)c3)ccc21 [Example 18, 6-[5-(6-Fluoro-pyridin-2-yloxymethyl)-pyridin-3-yl]-1-methyl-3,4-dihydro-1H-quinolin-2-one]"
0.2,9.1,"CN1C(=O)CCc2cc(-c3cncc(COc4cccc(Cl)n4)c3)ccc21 [Example 1, 6-[5-(6-Chloro-pyridin-2-yloxymethyl)-pyridin-3-yl]-1-methyl-3,4-dihydro-1H-quinolin-2-one]"
6.8,40.5,"CN1C(=O)CCc2cc(-c3cncc(CC(=O)Nc4cccc(Cl)n4)c3)ccc21 [Example 30, N-(6-Chloro-pyridin-2-yl)-2-[5-(1-methyl-2-oxo-1,2,3,4-tetrahydro-quinolin-6-yl)-pyridin-3-yl]-acetamide]"
0.1,4.8,"Cc1cccc(OCc2cncc(-c3ccc4c(c3)CCC(=O)N4C)c2)n1 [Example 3, 1-Methyl-6-[5-(6-methyl-pyridin-2-yloxymethyl)-pyridin-3-yl]-3,4-dihydro-1H-quinolin-2-one]"
12.7,307,"CN1C(=O)CCc2cc(-c3cncc(CC(=O)Nc4cccc(Cl)c4)c3)ccc21 [Example 29, N-(3-Chloro-phenyl)-2-[5-(1-methyl-2-oxo-1,2,3,4-tetrahydro-quinolin-6-yl)-pyridin-3-yl]-acetamide]"
0.3,16.3,"CN1C(=O)CCc2cc(-c3cncc(COc4cccc(Cl)n4)c3)c(F)cc21 [Example 21, 6-[5-(6-Chloro-pyridin-2-yloxymethyl)-pyridin-3-yl]-7-fluoro-1-methyl-3,4-dihydro-1H-quinolin-2-one]"
0.2,0.9,"CN1C(=O)CCc2cc(-c3cncc(COc4cc(C#N)ccn4)c3)ccc21 [Example 17, 2-[5-(1-Methyl-2-oxo-1,2,3,4-tetrahydro-quinolin-6-yl)-pyridin-3-ylmethoxy]-isonicotinonitrile]"
